Measurements taken from publication PMC8395767, “Worsening of the Toxic Effects of (±)Cis-4,4′-DMAR Following Its Co-Administration with (±)Trans-4,4′-DMAR: Neuro-Behavioural, Physiological, Immunohistochemical and Metabolic Studies in Mice” (International Journal of Molecular Sciences, 2021).
Marks after values point to notes of the source that are not given here.

What was measured:
mice = assay: Lethality during the observation period; format: in vivo; settings: n=6 mice
Description: The effects of (±)cis-4,4′-DMAR, (±)trans-4,4′-DMAR and their co-administration were investigated by a protocol widely used in studies of “safety pharmacology” for the preclinical characterization of new molecules in rodents. This protocol includes a series of observational behavioural tests carried out in a consecutive manner that monitor the animal responses up to 5 h after compound injections. In the present study, we reported the observation of physiological (sweating, salivation, core temperature) and neuro-behavioural (detection of psychomotor agitation, spontaneous and stimulated aggressiveness, convulsions) changes occurring in mice after injection of (±)cis-4,4′-DMAR, (±)trans-4,4′-DMAR and their co-administration. Before pharmacological treatment the mouse was placed on a square plate (30 cm× 30 cm) raised from the ground (20 cm) and left free to move on the plate for 10 min (habituation period). The animal was then injected with the vehicle, substances alone ((±)cis-4,4′-DMAR or (±)trans-4,4′-DMAR) or in cis + trans co-administration and placed on the plate. From this moment, the recording time of the physiological and neuro-behavioural responses started, and these were detected in 5-min sessions.
After the first 5 min, the animal was removed from the plate; the body core temperature was then measured, and the aggression tests were performed. The 5-min observation period was repeated at 15–30–60–90–120–180–240–300. Psychomotor agitation in the mouse was not simply related to an increase in spontaneous locomotion itself, but by an “unusual hyperactivity” which was characterised by rapid and sudden horizontal displacements in all directions, sustained turning behaviour, involuntary falls from the high plate during the evaluation of the tests, stereotyped movements and rearing activity. Mouse sweating and salivation were reported only if present or not. The core temperature was determined using a probe (1 mm diameter) that was gently inserted after lubrication with liquid Vaseline into the rectum of the mouse (to about 2 cm) and left in position until the temperature stabilised (about 10 s). The probe was connected to a digital thermometer. Spontaneous aggressive response was measured based on the number of times a mouse bit a grey cloth put in front of its snout. During the test, each mouse was free to move within the cage. In the case of stimulated aggressiveness, each mouse was manually restrained and held in a supine position following which an object was brought near the mouth. For both spontaneous and stimulated aggressive behaviour tests, a grey cloth was placed in front of the nose of each mouse 10 consecutive times (score 0/10 not aggressive, score 10/10 very aggressive). Convulsions were defined as a loss of righting reflexes for at least 5 s, combined with the presence of body tremors and clonic or tonic limb movements. Deaths caused by 4-4’-DMAR injection occurring during the observation period (5 h) were also reported as frequency (%) and time of death (min). Experiments were conducted inside the LARP (Centralised Preclinical Research Laboratory, University of Ferrara, Ferrara, Italy) in a thermo-stated (temperature 20–22 °C, humidity about 45–55%) and light controlled (about 150 lux) room, in which there was a background noise of about 40 ± 4 dB. The experiments, conducted in blind by trained observers working together in pairs, were videotaped and eventually analysed off-line by a different trained operator. The experiments were performed between 8:30 a.m. and 2:00 p.m.
Sweating and salivation were expressed as frequency (e.g., % of animals that developed symptoms); psychomotor agitation was expressed as frequency (% of animals) and duration (total time in mins). Core temperature values were expressed as the difference between control temperature (before injection) and temperature following drug administration (Δ°C). […]

frontal cortex = assay: Histology of brain (haematoxylin/eosin); format: in vivo, mice; settings: 30 mg/kg, compared to controls
From the text: (§1) Following the acute death or the sacrifice of the animals (after 5-h observation period by dislocation of the spine), brains were taken. These were fixed in 4% buffered formalin and then sampled and incorporated into the paraffin (Leica ASP300 processor, Histoline TEC2900 incorporator; Leica Microsystems Srl, Buccinasco, Milano, Italy). Subsequently, the cut (performed with the Leica HistoCore autocut microtome; Leica Microsystems Srl, Buccinasco, Milano, Italy) was designed to create sections with a thickness of 5 µm for each sample.
For histological investigations, the sections were stained with haematoxylin/eosin and then observed under optical microscope (Nikon Eclipse E90i; Nikon, Roma, Italy).

NF-kB = assay: Immunohistochemistry, frontal cortex: NF-kB; format: in vivo, mice
From the text: as §1
On 5-µm-thick paraffined […] sections, we evaluated the expression of a panel of markers: heat shock proteins (HSP27, HSP70, HSP90), SMAC/DIABLO, NF-kB, iNOS, NOX-2, NT, 8-OHDG.
We used a detection system composed of a biotinylated secondary antibody and HRP-conjugated streptavidin (4plus HRP Universal Detection, Biocare Medical). […] In the pictures (sections of the frontal cortex; Figure 3, Figure 4 and Figure 5) to evaluate the variation in the expression of markers (Smac, NOX2, iNOS, 8-OHdG, NT, HSP27, HSP70, HSP90) following treatments, the change in intensity of brown colour (staining of the immunohistochemical technique) in the control and treated tissue was measured. Quantification of Smac, NOX2, iNOS, 8-OHdG, NT, HSP27, HSP70 and HSP90 positive-stained areas was performed by the ImageJ software (imagej.nih.gov/ij/ Accessed date 12 May 2020). […]

SMILES | Lethality Frequency % (n° of mice) (mice; 30 mg/kg i.p.) | Lethality Surviving mice % (n° of mice) (mice; 30 mg/kg i.p.) | Lethality Time of death (mice; 30 mg/kg i.p.) [min] | Lethality Frequency % (n° of mice) (mice; 60 mg/kg i.p.) | Lethality Surviving mice % (n° of mice) (mice; 60 mg/kg i.p.) | Lethality Time of death (mice; 60 mg/kg i.p.) [min] | Lethality Time of death (min) (mice; 60 mg/kg i.p.) | Histology of the frontal cortex (edema, vacuolization areas) (frontal cortex) | Immunoreactivity of NF-kB in the frontal cortex (NF-kB; 10, 30 and 60 mg/kg, vs control) | Immunoreactivity of NF-kB in the frontal cortex (NF-kB; 30 mg/kg alone)
Cc1ccc(C2OC(N)=NC2C)cc1 (stereo not drawn) [cis-4,4’-DMAR, 4-methyl-5-(4-methylphenyl)-4,5-dihydrooxazol-2-amine] | 50% (3) | 50% (3) | 59.3 ± 2.3 | 100% (6) | 0% (0) | 31.9 ± 5.6 | 31.9 ± 5.6 ^d min | mild edema | increased | –
Cc1ccc(C2OC(N)=NC2C)cc1 (stereo not drawn) [trans-4,4’-DMAR, 4-methyl-5-(4-methylphenyl)-4,5-dihydrooxazol-2-amine] | – | – | – | – | – | – | – | – | – | ineffective
